Where two headings read alike, the source gives them in different places.
How the values were obtained:
pY705-STAT3 in PBMC = biological target: T1, pY705-STAT3 in PBMC (Homo sapiens, UniProt P40763); assay: MSD-pSTAT-PBMC Assay (pSTAT3, IL-6 stimulated); type: cell-based; conditions: PBMC, compound 3 hrs, then 10 ng/mL IL-6 for 10 min
T1 construct: Cryopreserved Peripheral Blood Mononuclear Cells (PBMC) are from AllCells; host or cells: cryopreserved PBMC
Outline: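 pY705-STAT3 was detected electrochemiluminescently on total-STAT3 capture plates, using lysates of human PBMCs given compound for 3 h and then IL-6 (10 ng/mL, 10 min). Values were background-subtracted against unstimulated wells and set relative to DMSO. IC50 was fitted with variable slope.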

pY641-STAT6 in PBMC = biological target: T2, pY641-STAT6 in PBMC (Homo sapiens, UniProt P42226); assay: MSD-pSTAT-PBMC Assay (pSTAT6, IL-4 stimulated); type: cell-based; conditions: compound 3 hrs, then 1 ng/mL IL-4 for 10 min
T2 construct: Cryopreserved Peripheral Blood Mononuclear Cells (PBMC) are from AllCells; host or cells: cryopreserved PBMC
T2 sequence (P42226 1-847): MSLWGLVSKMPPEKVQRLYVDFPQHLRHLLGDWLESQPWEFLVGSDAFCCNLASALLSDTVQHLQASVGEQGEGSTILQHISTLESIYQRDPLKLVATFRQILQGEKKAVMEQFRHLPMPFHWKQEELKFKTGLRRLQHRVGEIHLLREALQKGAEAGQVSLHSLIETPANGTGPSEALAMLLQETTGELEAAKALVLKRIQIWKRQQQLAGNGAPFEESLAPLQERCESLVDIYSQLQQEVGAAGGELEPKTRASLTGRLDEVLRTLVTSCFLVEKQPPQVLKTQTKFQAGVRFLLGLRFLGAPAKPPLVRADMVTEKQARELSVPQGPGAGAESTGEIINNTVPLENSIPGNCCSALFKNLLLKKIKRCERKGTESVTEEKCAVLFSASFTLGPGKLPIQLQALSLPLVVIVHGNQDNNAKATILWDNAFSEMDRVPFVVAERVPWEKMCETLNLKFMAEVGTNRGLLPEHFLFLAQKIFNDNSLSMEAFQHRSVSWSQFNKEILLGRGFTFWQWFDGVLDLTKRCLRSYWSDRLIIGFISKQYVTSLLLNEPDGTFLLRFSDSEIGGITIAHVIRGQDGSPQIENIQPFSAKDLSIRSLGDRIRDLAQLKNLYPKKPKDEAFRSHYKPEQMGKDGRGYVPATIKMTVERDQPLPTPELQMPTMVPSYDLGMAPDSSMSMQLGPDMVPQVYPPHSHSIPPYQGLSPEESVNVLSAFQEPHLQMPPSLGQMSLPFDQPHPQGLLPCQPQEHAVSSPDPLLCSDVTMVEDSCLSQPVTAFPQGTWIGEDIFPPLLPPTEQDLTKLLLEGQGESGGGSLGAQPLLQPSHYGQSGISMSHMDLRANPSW
Outline: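 Thawed human PBMC rested overnight in IMDM/10% FBS, then got compound for 3 hrs before a 10 min cytokine pulse: 1 ng/mL IL-4 for pSTAT6, 10 ng/mL IL-6 for pSTAT3. Lysates went to MSD sandwich capture on total STAT6 or STAT3 with phospho-specific detection. IC50 came from background-subtracted, DMSO-normalized signal.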

[1] = PBMC, Table 1114, read-out: pSTAT6
[2] = PBMC, Table 115, read-out: STAT6

T1 sequence (P40763 whole entry): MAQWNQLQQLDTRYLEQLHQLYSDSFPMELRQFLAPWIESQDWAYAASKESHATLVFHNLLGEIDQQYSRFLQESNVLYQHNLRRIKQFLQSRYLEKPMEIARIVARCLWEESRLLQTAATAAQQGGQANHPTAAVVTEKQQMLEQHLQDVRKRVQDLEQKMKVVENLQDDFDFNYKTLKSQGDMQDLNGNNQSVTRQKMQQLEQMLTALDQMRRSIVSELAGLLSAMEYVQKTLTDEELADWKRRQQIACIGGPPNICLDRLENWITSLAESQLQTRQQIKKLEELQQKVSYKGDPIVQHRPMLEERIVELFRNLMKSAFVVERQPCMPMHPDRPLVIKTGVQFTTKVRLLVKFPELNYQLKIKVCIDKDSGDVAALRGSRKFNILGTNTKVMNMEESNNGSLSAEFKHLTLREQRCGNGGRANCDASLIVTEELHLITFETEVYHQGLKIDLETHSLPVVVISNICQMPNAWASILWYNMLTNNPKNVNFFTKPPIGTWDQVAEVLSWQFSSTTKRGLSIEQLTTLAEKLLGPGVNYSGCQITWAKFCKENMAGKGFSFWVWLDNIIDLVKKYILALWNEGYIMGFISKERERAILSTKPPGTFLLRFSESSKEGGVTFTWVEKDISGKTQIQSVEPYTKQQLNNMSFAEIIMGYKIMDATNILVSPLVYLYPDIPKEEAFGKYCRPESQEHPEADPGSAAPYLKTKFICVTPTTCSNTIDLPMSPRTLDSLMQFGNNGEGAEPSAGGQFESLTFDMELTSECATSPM

IC50 (pY705-STAT3 in PBMC; Table 1114, read-out: pSTAT3) | IC50 (pY641-STAT6 in PBMC; [1]) | IC50 (pY641-STAT6 in PBMC; [2]) | Compound | IC50 (pY705-STAT3 in PBMC; Table 115, read-out: STAT3) | IC50 (pY641-STAT6 in PBMC; STAT6, PBMC, Table 115)
100 to 1000 nM | 100 to 1000 nM | – | CC(C)(C)C(=O)SCCOP(=O)(OCCSC(=O)C(C)(C)C)C(F)(F)c1ccc2sc(C(=O)N[C@H]3CCCC[C@H]4CC[C@@H](C(=O)N5C[C@@H](C#N)[C@H](c6cc[nH]c(=O)c6)C5)N4C3=O)cc2c1 (relative stereo) [Compound 157, S,S′-(((((2-(((3S,6S,10aS)-3-(rel-(trans)-3-cyano-4-(2-oxo-1,2-dihydropyridin-4-yl)pyrrolidine-1-carbonyl)-5-oxodecahydro-pyrrolo[1,2-a]azocin-6-yl)carbamoyl)benzo [b]thiophen-5-yl)difluoromethyl)phosphoryl)bis(oxy))bis(ethane-2,1-diyl)) bis(2,2-dimethylpropane-thioate)] | – | –
– | – | > 3000 nM | CC(C)(C)C(=O)SCCOP(=O)(OCCSC(=O)C(C)(C)C)C(F)(F)c1ccc2sc(C(=O)N[C@H]3CCC[C@H]4CC[C@@H](C(=O)N5CC(c6cnccc6F)C5)N4C3=O)cc2c1 [Compound 324, S,S′-((((difluoro(2-(((3S,6S,9aS)-3-(3-(4-fluoropyridin-3-yl)azetidine-1-carbonyl)-5-oxooctahydro-1H-pyrrolo[1,2-a]azepin-6-yl)carbamoyl)benzo [b]thiophen-5-yl)methyl)phosphoryl)bis(oxy))bis(ethane-2,1-diyl)) bis(2,2-dimethyl-propanethioate)] | < 100 nM | –
100 to 1000 nM | 100 to 1000 nM | – | CC(C)(C)C(=O)OCOP(=O)(OCOC(=O)C(C)(C)C)C(F)(F)c1ccc2sc(C(=O)N[C@@]3(C)CCCCC4CC[C@@H](C(=O)N5C[C@H](c6ccccc6)[C@@H](C#N)C5)N4C3=O)cc2c1 (relative stereo) [Compound 151, ((((2-(((3S,6S,10aS)-3-(rel-trans)-3-cyano-4-phenylpyrrolidine-1-carbonyl)-6-methyl-5-oxodecahydro-pyrrolo[1,2-a]azocin-6-yl)carbamoyl)benzo[b]thiophen-5-yl)difluoromethyl)phosphoryl)bis (oxy))bis (methylene) bis(2,2-dimethylpropanoate)] | – | –
– | – | – | CCCOC(=O)[C@H](C)NP(=O)(Oc1ccccc1)[C@@H](F)c1ccc2sc(C(=O)N[C@H]3CCCC[C@H]4CC[C@@H](C(=O)N5C[C@@H](c6ccccc6)[C@H](C#N)C56CC6)N4C3=O)cc2c1 (stereo partly drawn) [Compound 380, propyl (((R)-(2-(((3S,6S,10aS)-3-((6R,7S)-7-cyano-6-phenyl-4-azaspiro[2.4]heptane-4-carbonyl)-5-oxodecahydropyrrolo [1,2-a]azocin-6-yl)carbamoyl)benzo [b]thiophen-5-yl)fluoromethyl) (phenoxy)phosphoryl)-L-alaninate] | > 3000 nM | < 100 nM
– | – | – | CCCOC(=O)[C@H](C)NP(=O)(Oc1ccccc1)[C@@H](F)c1ccc2sc(C(=O)N[C@H]3CCC[C@H]4CC[C@@H](C(=O)N5CC(c6cnccc6N(C)C)C5)N4C3=O)cc2c1 (stereo partly drawn) [Compound 942, propyl (((R)-(2-(((3S,6S, 9aS)-3-(3-(4-(dimethylamino)pyridin-3-yl)azetidine-1-carbonyl)-5-oxooctahydro-1H-pyrrolo[1,2-a]azepin-6-yl)carbamoyl)benzo [b]thiophen-5-yl)fluoromethyl) (phenoxy)phosphoryl)-L-alaninate] | 100 to 1000 nM | > 3000 nM
> 3000 nM | 1000 to 3000 nM | – | CC(C)(O)CC(=O)SCCOP(=O)(OCCSC(=O)CC(C)(C)O)C(F)(F)c1ccc2sc(C(=O)N[C@H]3CCCC[C@H]4CC[C@@H](C(=O)N5C[C@@H](C#N)[C@H](c6ccccc6)C5)N4C3=O)cc2c1 (single isomer, unassigned) [Compound 202, S,S′-(((((2-(((3S,6S,10a S)-3-((3S,4R or 3R,4S)-3-cyano-4-phenylpyrrolidine-1-carbonyl)-5-oxodecahydro-pyrrolo [1,2-a]azocin-6-yl)carbamoyl)benzo [b]thiophen-5-yl)difluoromethyl)phosphoryl)bis(oxy))bis(ethane-2,1-diyl)) bis(3-hydroxy-3-methylbutane thioate)] | – | –
– | – | 100 to 1000 nM | CC(C)CC(=O)SCCOP(=O)(OCOC(=O)O[C@@H]1CCOC1)C(F)(F)c1ccc2sc(C(=O)N[C@H]3CCCC[C@H]4CC[C@@H](C(=O)N5C[C@H](c6cc[nH]c(=O)c6)[C@@H](C#N)C5)N4C3=O)cc2c1 (single isomer, unassigned) [Compound 1094] | 1000 to 3000 nM | –
– | – | – | C[C@H](NP(=O)(Cc1ccc2ccc(C(=O)N[C@H]3CCCC[C@H]4CC[C@@H](C(=O)N5CC(c6ccccc6)CC56CC6)N4C3=O)cc2c1)Oc1ccccc1)C(=O)OCc1ccccc1 (stereo partly drawn) [Compound 397, benzyl (((7-(((3S,6S,10aS)-5-oxo-3-(6-phenyl-4-azaspiro[2.4]heptane-4-carbonyl)decahydropyrrolo[1,2-a]azocin-6-yl)carbamoyl)naphthalen-2-yl)methyl)(phenoxy)phosphoryl)-L-alaninate] | > 3000 nM | > 3000 nM
100 to 1000 nM | < 100 nM | – | CC(C)CC(=O)SCCOP(=O)(OCCSC(=O)CC(C)C)C(F)(F)c1ccc2ccc(C(=O)N[C@H]3CCCC[C@H]4CC[C@@H](C(=O)N5C[C@H](c6cc[nH]c(=O)c6)[C@@H](C#N)C5)N4C3=O)cc2c1 (single isomer, unassigned) [Compound 155, S,S′-(((((7-(((3S,6S,10aS)-3-((3R,4S or 3S,4R)-3-cyano-4-(2-oxo-1,2-dihydropyridin-4-yl)pyrrolidine-1-carbonyl)-5-oxodecahydro-pyrrolo[1,2-a]azocin-6-yl)carbamoyl)naphthalen-2-yl)difluoromethyl)phosphoryl)bis(oxy))bis(ethane-2,1-diyl)) bis(3-methylbutane thioate)] | – | –
– | – | – | CCCOC(=O)[C@H](C)NP(=O)(Oc1ccccc1)C(F)c1ccc2sc(C(=O)N[C@H]3CCCC[C@H]4CC[C@@H](C(=O)N5C(=O)N(c6ccn(C)c(=O)c6)C(=O)C56CC6)N4C3=O)cc2c1 (stereo partly drawn) [Compound 977, propyl ((fluoro(2-(((3S,6S,10aS)-3-(6-(1-methyl-2-oxo-1,2-dihydropyridin-4-yl)-5,7-dioxo-4,6-diazaspiro[2.4]heptane-4-carbonyl)-5-oxodecahydropyrrolo [1,2-a]azocin-6-yl)carbamoyl)benzo [b]thiophen-5-yl)methyl)(phenoxy)phosphoryl)-L-alaninate] | – | 100 to 1000 nM
– | – | – | CCCOC(=O)[C@H](C)NP(=O)(Oc1ccccc1)[C@@H](F)c1ccc2sc(C(=O)N[C@H]3CCCC[C@H]4CC[C@@H](C(=O)N5C(=O)N(c6cncc(C(F)F)c6)C(=O)C56CC6)N4C3=O)cc2c1 (stereo partly drawn) [Compound 333, propyl (((R)-(2-(((3S,6S,10aS)-3-(6-(5-(difluoromethyl)pyridin-3-yl)-5,7-dioxo-4,6-diazaspiro[2.4]heptane-4-carbonyl)-5-oxodecahydropyrrolo [1,2-a]azocin-6-yl)carbamoyl)benzo [b]thiophen-5-yl)fluoromethyl) (phenoxy)phosphoryl)-L-alaninate] | – | > 3000 nM
– | – | – | CCCOC(=O)[C@H](C)NP(=O)(Oc1ccccc1)[C@@H](F)c1ccc2sc(C(=O)N[C@H]3CCCC[C@H]4CC[C@@H](C(=O)N5C(=O)N(c6cnccc6C)C(=O)C56CC6)N4C3=O)cc2c1 (stereo partly drawn) [Compound 334, propyl (((R)-fluoro(2-(((3S,6S,10aS)-3-(6-(4-methylpyridin-3-yl)-5,7-dioxo-4,6-diazaspiro[2.4]heptane-4-carbonyl)-5-oxodecahydropyrrolo [1,2-a]azocin-6-yl)carbamoyl)benzo [b]thiophen-5-yl)methyl)(phenoxy)phosphoryl)-L-alaninate] | – | < 100 nM

Compound | IC50 (pY705-STAT3 in PBMC; Table 1114, read-out: pSTAT3) | IC50 (pY641-STAT6 in PBMC; [1]) | IC50 (pY641-STAT6 in PBMC; [2]) | IC50 (pY705-STAT3 in PBMC; Table 115, read-out: STAT3) | IC50 (pY641-STAT6 in PBMC; STAT6, PBMC, Table 115)
S-(2-((((2- (((3S,6S,9aS)-3-(3-(3- cyanophenyl) azetidine-1-carbonyl)-5- oxooctahydro-1H- pyrrolo[1,2-a]azepin-6- yl)carbamoyl)benzo[b] thiophen-5-yl) difluoromethyl)(((3- methylbutanoyl)thio) methoxy)phosphoryl) oxy)ethyl) 3- methylbutane thioate [Compound 176] | < 100 nM | 1000 to 3000 nM | – | – | –

Reference: patent US20250215029A1 (Recludix Pharma, Inc., priority 2022, published 2025)
